| Compound | melting point |
| --- | --- |
| CCCOc1ccc(S(C)(=O)=O)cc1C(=O)Nc1c(C(N)=O)nn(CC2CC2)c1CC | 185 to 186 °C |
| Cc1c(C=NO)c2ccccc2n1-c1ccc(O)cc1 | 171 to 173 °C |
| CC(C)C(CO)NC(=O)c1nsc2ccc(-n3c(=O)cc(C(F)(F)F)n(C)c3=O)cc12 (stereo unspecified) | 120 °C |
| Cc1ccc(C2CCN(C(=O)CCC(=O)c3ccc4c(c3)CN(C(C)C)CC4)CC2)cc1 | 78 to 80 °C |
| CCCC(=O)n1nc2c(c1NC)c(=O)n(CCC)c(=O)n2Cc1cccc(Cl)c1 | 152 to 153 °C |
| O=C1C=C(C2CCCCNC2=O)CCC1 (stereo unspecified) | 159 to 165 °C |
| Nc1ncnc2c1ncn2Cc1oc2ccc(Br)cc2c(=O)c1-c1ccccc1 | 207 to 209 °C |
| Cc1cc(O)c(Oc2ccccc2C#N)cc1N1CCOCC1 | 162 to 165 °C |
| CCOC(=O)N1CCN(Cc2nc3cccnc3n2CCO)CC1 | 117 °C |
| CCOP(=O)(Cc1ccc(C(=O)O)s1)OCC | 77 to 78 °C |
| Cc1ncc(C(=O)NCc2cc(C(F)(F)F)cc(C(F)(F)F)c2)c(-c2ccccc2Br)n1 | 138 °C |
| CCOC(=O)CCC(=O)c1ccc(O)c(O)c1 | 116 to 117 °C |
| CC(C)OC(=O)c1cc(-n2c(=O)c3c(n(C)c2=O)CCC3)c(F)cc1Br | 116 to 120 °C |
| CN1OCC(=Cc2cc(C(C)(C)C)c(O)c(C(C)(C)C)c2)C1=O | 194 to 196 °C |
| CNC(=NC#N)NCCCCc1csc(NC(=N)N)n1 | 165 to 168 °C |
| O=CC1(c2ccc(Br)cc2)CC=CO1 (stereo unspecified) | 154 °C |
| Cn1c(-c2cccc(C(F)(F)F)c2)cc(=O)n(-c2ccc(Cl)cc2F)c1=O | 139 to 142 °C |
| COc1cc(C=Cc2ccc(Cl)nn2)cc(OC)c1OC | 162 to 164 °C |
| CCCCCCCCCCCCCCCCCCOc1cc(NC(C)=O)cc(N(CC(=O)OCc2ccccc2)CC(=O)OCc2ccccc2)c1 | 89 to 90 °C |
| Cc1nn(-c2ccc(Cl)nn2)c(C)c1[N+](=O)[O-] | 164 to 167 °C |
| COc1ccc(C(=O)COC(=O)NC(C)C)cc1 | 121 to 122 °C |
| FC(F)(F)c1cc(Br)cc(C(F)(F)F)n1 | 92 to 95 °C |
| CCCc1nc(C(C)(C)O)c(C(=O)OC2OC(=O)c3ccccc32)n1Cc1ccc(-c2ccccc2C(=O)O)cc1 (stereo unspecified) | 142 to 144 °C |
| CN1C(=O)C(c2cccc(-c3ccccc3)c2)(C2CCN(C(=O)c3cccs3)CC2)N=C1N (stereo unspecified) | 135 to 137 °C |

| Compound | melting point |
| --- | --- |
| CCOC(=O)c1cc(=O)c(-c2ccc(OC)cc2)co1 | 121 to 123 °C |
| CC(=O)N1CCN(c2ccc(C3CCS(=O)(=O)NC3)cc2)CC1 (stereo unspecified) | 196 to 197 °C |
| Cc1ccc(S(=O)(=O)OCC2C(CC(C)C3CCC4C(O)CCCC34C)N(C)OC2(C)C)cc1 (stereo unspecified) | 114 to 115 °C |
| Cc1cccc(NC(=O)NC2N=C(C(C)C)c3cccc(C)c3N(CC(=O)C3CCCCC3)C2=O)c1 (stereo unspecified) | 142 to 146 °C |
| CC(C)(C)OC(=O)C(ON1CCNC1=Nc1c(Cl)cccc1Cl)c1ccccc1 (stereo unspecified) | 88 to 90 °C |
| Cn1c(=O)c2c(ncn2CCCCC#N)n(C)c1=O | 118 to 120 °C |
| COc1ccc(-c2cc(C)nc3ccccc23)cc1 | 101 °C |
| CCOC(=O)N1CCN(c2ccc(-n3cnn(C(C)(C)C(=O)c4ccc(Cl)cc4)c3=O)cc2)CC1 | 137 °C |
| C=Cc1ccc2c(c1CCC(=O)OC)CCC(NS(=O)(=O)c1ccc(Cl)cc1)C2 (stereo unspecified) | 138 °C |
| Cc1nc2ccccn2c(=O)c1CCN1CC[C@H](Nc2nc3ccccc3n2Cc2ccc(F)cc2)[C@H](C)C1 (relative stereo) | 161 °C |
| NS(=O)(=O)c1cnc(NC(=O)c2cnn3c(C(F)F)cc(-c4ccc(C(F)(F)F)cc4)nc23)s1 | 311 °C |
| Cn1cnnc1C(N)(c1ccc(Cl)cc1)c1ccc2c(c1)c(-c1cccc(Cl)c1)cc(=O)n2C (stereo unspecified) | 210 °C |
| Cc1cc(Oc2cccnc2)c(S(C)(=O)=O)cc1C(=O)N=C(N)N | 221 to 224 °C |
| Cc1ccc(S(=O)(=O)NP(N)(N)=O)cc1 | 114 to 118 °C |
| CCOC(=O)C=C(C)Nc1ccccc1N | 73 to 81 °C |
| COC(=O)Cc1ccc(OC(=S)N(C)C)cc1F | 113 to 114 °C |
| CN(C(CCN1C(=O)CNC1=O)C(=O)NO)S(=O)(=O)c1ccc(Oc2ccccc2)cc1 (stereo unspecified) | 146 to 147 °C |
| O=C(O)CCCCCCCCN1NC(c2ccccc2)=C(c2ccccc2)NC1=O | 97 to 100 °C |
| O=C1C(=O)c2ccc(-c3cccc(C(F)(F)F)c3)cc2C2=C1SCC1(CCNCC1)O2 | 199 to 203 °C |
| CC(=O)Nc1c(-c2ccc(Cl)cc2)c2ccccc2n1C | 196 to 197 °C |
| COCC(=O)N[C@H]1CC[C@H](CCN2CCN(c3nccc4c3OCC4)CC2)CC1 | 126 °C |
| Cc1ccc2oc(C(=O)N[C@H]3CCN(C(=O)c4cc(C(F)(F)F)cc(C(F)(F)F)c4)[C@H](Cc4ccc(Cl)cc4)C3)cc(=O)c2c1 | 240 to 241 °C |
| CCC(=O)Nc1cc(-n2cccn2)nc(-c2ccc(Cl)o2)n1 | 189 to 190 °C |
| CN(C)CCNc1ncc(-c2ccccc2)c(C(=O)N(C)Cc2cc(C(F)(F)F)cc(C(F)(F)F)c2)n1 | 108 to 110 °C |

| Compound | melting point |
| --- | --- |
| CCOC(=O)c1c[nH]cc1C(=O)OCC | 148 to 149 °C |
| CC(=O)N(C(C)=O)c1ncc(C#Cc2cnn3c(C(F)(F)F)cc(-c4ccc(C(F)(F)F)cc4)nc23)cn1 | 253 to 254 °C |
| O=Cc1cccc2sc(-c3ccccc3)nc12 | 127 to 128 °C |
| CC(C)=CCOc1ccc(C(=O)C=Cc2cccc([N+](=O)[O-])c2)c(O)c1 | 125 to 126 °C |
| CCC(=O)Oc1cccc2c1C(=O)c1c(OC(=O)CC)cccc1C2C(=O)CC | 125 °C |
| COC(=O)c1c(C)c(OC)cc(O[Si](C)(C)C(C)(C)C)c1C=O | 125 to 131 °C |
| CCc1nc2c(N)nc3cc(OCc4cccc(Cl)n4)ccc3c2s1 | 229 to 230 °C |
| O=C1NC(=S)NC(=O)C1=Cc1c[nH]c2ccccc12 | 320 °C |
| COc1ccc(-c2nc(SC)[nH]c2-c2ccc(OC)cc2)cc1 | 157 to 158 °C |
| Cc1cccc(-c2n[nH]cc2-c2ccnc(-c3ccc(Cl)cc3)c2)n1 | 190 °C |
| CCc1cc(Cl)c2c(=O)cc(C(=O)O)[nH]c2c1 | 248 to 250 °C |
| NC(=O)C1CCc2c(sc3cc(F)ccc23)C1 (stereo unspecified) | 184 to 185 °C |
| COc1ccc(S(=O)(=O)Nc2cccnc2Nc2ccccc2)c(OC)c1 | 176 to 178 °C |
| O=C(COc1noc(-c2ccccc2)c1Cl)NCCO[N+](=O)[O-] | 138 to 139 °C |
| CCOC(=O)C1=C(C)NC(C)=C(C(=O)OCC2CC2)C1c1cccc([N+](=O)[O-])c1 (stereo unspecified) | 169 to 170 °C |
| ClCCOc1ccc(Cl)c2[nH]ccc12 | 68 to 72 °C |
| CCCCCC(CNC(=O)Nc1c(C(C)C)cccc1C(C)C)c1cccc2c1OCO2 (stereo unspecified) | 161 to 163 °C |
| Cc1ccc(Cc2cnc(NCC(O)COc3cccc(CN4CCCCC4)c3)[nH]c2=O)cn1 (stereo unspecified) | 115 to 117 °C |
| O=C(O)CN1C(=O)C(=Cc2ccc(-c3ccccc3)cc2)SC1=S | 258 to 262 °C |
| CCCCC1(N(C)C)CCC(c2[nH]c3ccccc3c2CCC)CC1 (stereo unspecified) | 127 to 130 °C |
| N=C(N)CSc1nnc(S)s1 | 184 to 187 °C |
| Cn1cccc1-c1ccc2c(c1)C(C)(C)OC(=O)N2 | 230 °C |
| Cc1cccc(OCCOc2cccc(C)c2)c1 | 98 °C |
| CCc1nc(OC)c(NC(=O)N2CCN(c3cc(OC)c(OC)c(OC)c3)CC2)cc1C(=O)Nc1cc(CO)cc(Nc2c3ccccc3nc3ccccc23)c1 | 190 to 192 °C |

| Compound | melting point |
| --- | --- |
| CSc1nn(-c2c(Cl)cc(C(F)(F)F)cc2Cl)c(N)c1S(=O)(=O)c1cccc(C(F)(F)F)c1 | 201 to 203 °C |
| FC(F)(F)c1cccc(Nc2nc(NCc3ccco3)nc(OCc3ccncc3)n2)c1 | 124 to 126 °C |
| O=C(Nc1cccnc1)c1ccc(OC(F)F)c2oc3ccccc3c12 | 209 to 211 °C |
| Brc1ccc(N(Cc2ccccc2)c2ccccc2)cc1 | 97 to 98 °C |
| NS(=O)(=O)c1cc(CO)cc(N2CCCC2)c1Oc1ccccc1 | 155 °C |
| CC(C)[C@@H]1C[C@H](O)[C@H](C2CCCCC2)NC1=O | 97 to 99 °C |
| COc1ccc(O)c(C2C(=O)Nc3cccc(Br)c32)n1 (stereo unspecified) | 149 to 152 °C |
| CC(=O)NC1CCCC1CC(Cl)C#N (stereo unspecified) | 114 to 117 °C |
| CCCCC(=O)Nc1ccc(Cl)c(-n2nc(CC)n(Cc3ccc(-c4ccccc4S(=O)(=O)NC(=O)OC(C)(C)C)cc3F)c2=O)c1 | 143 to 145 °C |
| COc1ccc(CCNC(=O)C(=O)NCc2ccc([N+](=O)[O-])cc2)cc1OC1CCCC1 | 148 to 150 °C |
| COC1C(O)C(CO)OC1n1cnc2c(NC3CCCCC3)ncnc21 (stereo unspecified) | 88 to 91 °C |
| CCCCCc1ccc(-c2ccc(C3CCC(=O)O3)cc2)cc1 (single isomer, unassigned) | 98.8 °C |
| C=CCS(=O)(=O)c1ccc(N2CC=C(c3ccc(Cl)cc3)N2)cc1 | 210 °C |
| COc1ccc(S(=O)(=O)N(CCC(F)(F)F)c2ccccc2/C=C/c2ccncc2)cc1 | 124 to 126 °C |
| Cc1cc(-c2ccc(NC(=O)CCN3CCC(c4ccccc4)CC3)cc2)n[nH]c1=O | 239 to 240 °C |
| CC(C)(C)c1cc(Cn2c(=S)sc3ccccc32)cc(C(C)(C)C)c1O | 148 to 150 °C |
| NC(=O)c1nn(-c2ccc3c(c2)OCO3)c2c1CCc1ccc(NC(=O)c3cc(Cl)ncc3Cl)cc1-2 | 292 to 293 °C |
| O=c1n(CC2CN(Cc3ccccc3)CCO2)c2ccccc2n1-c1ccccc1 (stereo unspecified) | 90 °C |
| CCOC(=O)c1ccc(-c2csc(-c3ccccc3)n2)cc1 | 72 to 73 °C |
| COc1ccc2cc(-c3cnc(-c4ccccc4)o3)ccc2c1 | 149 to 151 °C |
| O=C(Nc1ccc(OC(F)(F)F)cc1)NC1CCN(C(=O)C2CC2)CC1 | 195 to 196 °C |
| Clc1ccc2c(c1)C(c1ccccc1)=NCc1nnc(Cc3ccccc3)n1-2 | 190 to 192 °C |
| Nc1nnc(-c2cc(Cl)cc(Cl)c2O)s1 | 268 °C |
| CCOc1cccc(-c2ccc(C3=CCN(S(=O)(=O)CC(=O)OC)CC3)cc2)c1 | 120 to 122 °C |
